From patent publication US10899758B2, “Inhibitors of the menin-MLL interaction” (Vitae Pharmaceuticals, LLC, priority 2016, dated 2021)
Like-named read-outs stand apart in the source and are kept apart here.

Key:
[1] = test system: human acute monocytic leukemia cell line MV-4-11; assay: Assay 2 (Cell Proliferation Assay), ATP quantitation (CellTiter-Glo); assay type: cell-based; conditions: MV-4-11 cells, read-out: Assay 2 (EC50, inhibition of cell proliferation)
Method: Potencies of inhibitor compounds against cell proliferation was assessed against the human acute monocytic leukemia cell line MV-4-11 (ATCC® CRL-9591™) based on ATP quantitation. MV-4-11 cells or toxicity control HL-60 cells (ATCC® CCL-240™) were incubated in 96-well tissue culture plates (1.67×10^4 cells in 200 μL culture media containing 10% FBS per well) with or without test compound for 72 h at 37° C., 5% CO2. After incubation, each well was mixed by pipetting and 95 μL from each well was transferred to a well in 96-well black OptiPlate® plates (PerkinElmer). An equal volume of CellTiter-Glo® Luminescent Cell Viability Assay reagent (Promega) was added to each well, followed by mixing for 5 min on an orbital plate shaker. Luminescence was measured on a Wallac EnVision 2104 Multilabel Reader (PerkinElmer) to quantitate ATP. Percent inhibition of cell proliferation by test compounds was calculated based on uninhibited cell growth (DMSO) versus cells treated with a potent menin inhibitor at a concentration yielding at least 100×LD50.

[2] = biological target: T1, menin/MLL binding (biotinylated wild-type or mutated menin and MLL-AF9 fusion protein) (Homo sapiens, UniProt O00255); assay: Assay 1 (Binding Assay): AlphaLISA menin/MLL binding; conditions: 5 nM biotinylated menin, MLL-AF9-FLAG lysate
T1 construct: biotinylated (1) wild-type menin or (2) mutated menin (described in Nature (2012) Vol. 482, pp. 542-548); fused on or other part: Biotin attached chemically (Sulfo-NHS-Biotin); no fused second protein is printed for menin
T1 sequence (O00255 1-459 limits assumed): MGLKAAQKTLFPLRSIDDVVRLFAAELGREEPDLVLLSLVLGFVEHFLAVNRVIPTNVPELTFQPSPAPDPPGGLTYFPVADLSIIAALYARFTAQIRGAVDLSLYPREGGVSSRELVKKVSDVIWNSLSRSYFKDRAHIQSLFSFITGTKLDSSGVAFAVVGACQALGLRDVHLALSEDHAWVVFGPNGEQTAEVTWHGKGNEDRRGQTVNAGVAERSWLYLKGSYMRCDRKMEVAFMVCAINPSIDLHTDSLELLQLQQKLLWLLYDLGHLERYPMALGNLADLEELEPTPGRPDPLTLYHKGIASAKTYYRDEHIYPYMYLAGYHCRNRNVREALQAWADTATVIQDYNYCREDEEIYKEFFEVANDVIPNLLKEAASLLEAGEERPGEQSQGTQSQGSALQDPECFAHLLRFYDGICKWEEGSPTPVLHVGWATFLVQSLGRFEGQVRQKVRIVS
Procedure, shortened: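 Biotinylated E. coli-expressed menin (wild-type or mutant), 5 nM, incubated 30 min RT with compound and HEK293 lysate of MLL1-1,396–AF9-FLAG in pH 7.4 Tris buffer, 5% DMSO, 1 mM DTT. Anti-FLAG acceptor and streptavidin donor beads added, 60 min RT, AlphaLISA signal read. IC50 from four-parameter fit of % inhibition.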

Row | SMILES | EC50 ([1]; Homo sapiens, MV4-11, 72 h) [nM] | IC50 [2] [nM] | EC50 ([1]; 72 h) [nM]
1 | Cc1c(CN2CCC(c3cn(-c4ccc(F)cc4CC(C)C)c4cnccc34)CC2)ccc2[nH]c(C#N)cc12 [Example 42, 5-((4-(1-(4-fluoro-2-isobutylphenyl)-1H-pyrrolo[2,3-c]pyridin-3-yl)piperidin-1-yl)methyl)-4-methyl-1H-indole-2-carbonitrile] | 100 to 1000 | < 100 | –
2 | CC(C)N(C)C(=O)c1cc(F)ccc1-n1cc([C@H]2CC[C@H](N3CCC[C@@H]3CO)CC2)c2ccncc21 [Example 100, 5-fluoro-2-(3-(trans-4-((R)-2-(hydroxymethyl)pyrrolidin-1-yl)cyclohexyl)-1H-pyrrolo[2,3-c]pyridin-1-yl)-N-isopropyl-N-methylbenzamide] | 100 to 1000 | < 100 | –
3 | CC(C)N(C(=O)c1cc(F)ccc1-n1cc(C2CCCN(Cc3ccc4[nH]c(=O)[nH]c4c3)C2)c2ccncc21)C(C)C (stereo not drawn) [Example 84A, 5-fluoro-N,N-diisopropyl-2-(3-(1-((2-oxo-2,3-dihydro-1H-benzo[d]imidazol-5-yl)methyl)piperidin-3-yl)-1H-pyrrolo[2,3-c]pyridin-1-yl)benzamide] | < 100 | < 100 | –
4 | CC(C)N(C(=O)c1cc(F)ccc1-n1cc(C2CCN(C[C@H]3CC[C@H](NS(C)(=O)=O)CC3)C2)c2ccncc21)C(C)C (stereo partly drawn) [Example 127, 5-fluoro-N,N-diisopropyl-2-(3-(1-((trans-4-(methylsulfonamido)cyclohexyl)methyl)pyrrolidin-3-yl)-1H-pyrrolo[2,3-c]pyridin-1-yl)benzamide] | < 100 | < 100 | –
5 | CC(C)N(C)C(=O)c1cc(F)ccc1-n1cc([C@H]2CC[C@H](N3CCC[C@H]3CO)CC2)c2ccncc21 [Example 96, 5-fluoro-2-(3-(trans-4-((S)-2-(hydroxymethyl)pyrrolidin-1-yl)cyclohexyl)-1H-pyrrolo[2,3-c]pyridin-1-yl)-N-isopropyl-N-methylbenzamide] | 100 to 1000 | < 100 | –
6 | CC(C)N(C)C(=O)c1cc(F)ccc1-n1cc(C2CCN(Cc3ccc4c(c3)[nH]c(=O)n4CCO)C2)c2ccncc21 (stereo not drawn) [Example 123, 5-fluoro-2-(3-(1-((1-(2-hydroxyethyl)-2-oxo-2,3-dihydro-1H-benzo[d]imidazol-5-yl)methyl)pyrrolidin-3-yl)-1H-pyrrolo[2,3-c]pyridin-1-yl)-N-isopropyl-N-methylbenzamide] | < 100 | < 100 | –
7 | CCN(C(=O)c1cc(F)ccc1-n1cc([C@@H]2CCCN(Cc3ccc4c(c3)[nH]c(=O)n4CCO)C2)c2ccncc21)C(C)C [Example 49A, (S)-N-ethyl-5-fluoro-2-(3-(1-((1-(2-hydroxyethyl)-2-oxo-2,3-dihydro-1H-benzo[d]imidazol-5-yl)methyl)piperidin-3-yl)-1H-pyrrolo[2,3-c]pyridin-1-yl)-N-isopropylbenzamide] | < 100 | < 100 | –
8 | CC(C)N(C)C(=O)c1cc(F)ccc1-n1cc(C2CCN(C[C@H]3CC[C@H](O)CC3)CC2)c2ccncc21 [Example 27, trans-(5-fluoro-2-(3-(1-((4-hydroxycyclohexyl)methyl)piperidin-4-yl)-1H-pyrrolo[2,3-c]pyridin-1-yl)-N-isopropyl-N-methylbenzamide)] | ≥ 1000 | < 100 | –
9 | CC(C)N(C)C(=O)c1cc(F)ccc1-n1cc(C2CCC(NCC3CCC(NS(C)(=O)=O)CC3)CC2)c2ccncc21 (single isomer, unassigned) [Example 61, 5-fluoro-N-isopropyl-N-methyl-2-(3-(4-(((4-(methylsulfonamido)cyclohexyl)methyl)amino)cyclohexyl)-1H-pyrrolo[2,3-c]pyridin-1-yl)benzamide] | – | < 100 | 100 to 1000
10 | CC(C)N(C)C(=O)c1cc(F)ccc1-n1cc([C@H]2CC[C@H](N3CCCC3)CC2)c2ccncc21 [Example 55, 5-fluoro-N-isopropyl-N-methyl-2-(3-(trans-4-(pyrrolidin-1-yl)cyclohexyl)-1H-pyrrolo[2,3-c]pyridin-1-yl)benzamide] | 100 to 1000 | < 100 | –
11 | Cc1c(CN2CCC(c3cn(-c4ccccc4)c4cncnc34)CC2)ccc2[nH]c(C#N)cc12 [Example 72, 4-methyl-5-((4-(5-phenyl-5H-pyrrolo[3,2-d]pyrimidin-7-yl)piperidin-1-yl)methyl)-1H-indole-2-carbonitrile] | – | ≥ 1000 | –
12 | CC(C)N(C)C(=O)c1cc(F)ccc1-n1cc([C@H]2CC[C@@H](N3CC[C@@H](CO)C3)CC2)c2ccncc21 [Example 103, 5-fluoro-2-(3-(cis-4-((R)-3-(hydroxymethyl)pyrrolidin-1-yl)cyclohexyl)-1H-pyrrolo[2,3-c]pyridin-1-yl)-N-isopropyl-N-methylbenzamide] | – | < 100 | –
13 | CC(C)N(C)C(=O)c1cc(F)ccc1-n1cc(C2CCC(N3CCC(O)C3)CC2)c2ccncc21 (single isomer, unassigned) [Example 95A, 5-fluoro-2-(3-(4-(3-hydroxypyrrolidin-1-yl)cyclohexyl)-1H-pyrrolo[2,3-c]pyridin-1-yl)-N-isopropyl-N-methylbenzamide] | – | < 100 | –

Results, then the compound that gave them:

Row | EC50 ([1]; Homo sapiens, MV4-11, 72 h) [nM] | IC50 [2] [nM] | EC50 ([1]; 72 h) [nM] | SMILES
14 | 100 to 1000 | < 100 | – | Cc1c(CN2CCC(c3cn(-c4ccc(F)cc4)c4cnccc34)CC2)ccc2[nH]c(C#N)cc12 [Example 37, 5-((4-(1-(4-fluorophenyl)-1H-pyrrolo[2,3-c]pyridin-3-yl)piperidin-1-yl)methyl)-4-methyl-1H-indole-2-carbonitrile]
15 | < 100 | < 100 | – | CC(C)N(C(=O)c1cc(F)ccc1-n1cc(C2CCN(Cc3ccc4c(c3)[nH]c(=O)n4CCO)C2)c2ccncc21)C(C)C (stereo not drawn) [Example 126, 5-fluoro-2-(3-(1-((1-(2-hydroxyethyl)-2-oxo-2,3-dihydro-1H-benzo[d]imidazol-5-yl)methyl)pyrrolidin-3-yl)-1H-pyrrolo[2,3-c]pyridin-1-yl)-N,N-diisopropylbenzamide]
16 | < 100 | < 100 | – | CC(C)N(C)C(=O)c1cc(F)ccc1-n1cc(C2CCN(Cc3ccc4[nH]c(=O)[nH]c4c3)C2)c2ccncc21 (stereo not drawn) [Example 122, 5-fluoro-N-isopropyl-N-methyl-2-(3-(1-((2-oxo-2,3-dihydro-1H-benzo[d]imidazol-5-yl)methyl)pyrrolidin-3-yl)-1H-pyrrolo[2,3-c]pyridin-1-yl)benzamide]
17 | – | < 100 | < 100 | CCN(C(=O)c1cc(F)ccc1-n1cc(C2CCCN(Cc3ccc4[nH]c(=O)[nH]c4c3)C2)c2ccncc21)C(C)C (single isomer, unassigned) [Example 47B]
18 | 100 to 1000 | < 100 | – | CC(=O)N[C@H]1CC[C@H](CCN2CCC(c3cn(-c4ccc(F)cc4C(=O)N(C)C(C)C)c4cnccc34)CC2)CC1 [Example 18, 2-(3-(1-(2-(trans-4-acetamidocyclohexyl)ethyl)piperidin-4-yl)-1H-pyrrolo[2,3-c]pyridin-1-yl)-5-fluoro-N-isopropyl-N-methylbenzamide]
19 | 100 to 1000 | < 100 | – | CC(C)N(C)C(=O)c1cc(F)ccc1-n1cc(C2CCN(CCC3CCN(S(C)(=O)=O)CC3)CC2)c2ccncc21 [Example 28, 5-fluoro-N-isopropyl-N-methyl-2-(3-(1-(2-(1-(methylsulfonyl)piperidin-4-yl)ethyl)piperidin-4-yl)-1H-pyrrolo[2,3-c]pyridin-1-yl)benzamide]
20 | 100 to 1000 | < 100 | – | CC(C)N(C)C(=O)c1cc(F)ccc1-n1cc(C2CCN(Cc3ccccc3Cl)CC2)c2ccncc21 [Example 15, 2-(3-(1-(2-chlorobenzyl)piperidin-4-yl)-1H-pyrrolo[2,3-c]pyridin-1-yl)-5-fluoro-N-isopropyl-N-methylbenzamide]
21 | < 100 | < 100 | – | CCN(C(=O)c1cc(F)ccc1-n1cc(C2CCN(C[C@H]3CC[C@H](NS(C)(=O)=O)CC3)C2)c2ccncc21)C(C)C (stereo partly drawn) [Example 125, N-ethyl-5-fluoro-N-isopropyl-2-(3-(1-((trans-4-(methylsulfonamido)cyclohexyl)methyl)pyrrolidin-3-yl)-1H-pyrrolo[2,3-c]pyridin-1-yl)benzamide]
